Reference: patent US9133235B2, “Macrocyclic antagonists of the motilin receptor for treatment of gastrointestinal dysmotility disorders” (Ocera Therapeutics, Inc., priority 2006, dated 2015)

Target: human motilin receptor (Homo sapiens, UniProt O43193)
Experiment: Competitive radioligand binding assay (motilin receptor)
Set-up: purchased PerkinElmer (SignalScreen) 6110544; host or cells: CHO cells, stably transfected; membranes
Settings: for Ki: [125I]-motilin competition, membranes of CHO cells with human motilin receptor, read-out: Ki
Experimental: A. Competitive Radioligand Binding Assay (Motilin Receptor)
The competitive binding assay at the human motilin receptor was carried out analogously to assays described in the literature.
• Membranes were prepared from CHO cells stably transfected with the human motilin receptor and utilized at a quantity of 1.5 μg/assay point. [PerkinElmer™ SignalScreen Product #6110544] • [^125I]-Motilin (PerkinElmer, #NEX-378); final concentration: 0.04-0.06 nM • Motilin (Bachem™, #H-4385); final concentration: 1 μM • Multiscreen Harvest plates-GF/B (Millipore™, #MAHFB1H60) • Deep-well polypropylene titer plate (Beckman Coulter™, #267006) • TopSeal-A (PerkinElmer, #6005185) • Bottom seal (Millipore, #MATAH0P00) • MicroScint-0 (PerkinElmer, #6013611) • Binding Buffer: 50 mM Tris-HCl (pH 7.4), 10 mM MgCl2, 1 mM EDTA, 0.1% BSA Assay Volumes: • 150 μL of membranes diluted in binding buffer • 10 μL of compound diluted in binding buffer • 10 μL of radioligand ([^125I]-Motilin) diluted in binding buffer Final Test Concentrations (N=11) for Compounds: • 10, 5.0, 2.0, 1.0, 0.50, 0.20, 0.10, 0.050, 0.020, 0.010, 0.0050 μM. Compound Handling:
Compounds were provided frozen on dry ice at a stock concentration of 10 mM diluted in 100% DMSO and stored at −20° C. until the day of testing. On the test day, compounds were allowed to thaw at room temperature and than diluted in assay buffer according to the desired test concentrations. Under these conditions, the maximum final DMSO concentration in the assay was 0.5%.
In deep-well plates, diluted cell membranes (1.5 μg/mL) are combined with 10 μL of either binding buffer (total binding, N=5), 1 μM motilin (non-specific binding, N=3) or the appropriate concentration of test compound. The reaction is initiated by addition of 10 μL of [^125I]-motilin (final conc. 0.04-0.06 nM) to each well. Plates are sealed with TopSeal-A, vortexed gently and incubated at room temperature for 2 hours. The reaction is arrested by filtering samples through pre-soaked (0.3% polyethyleneimine, 2 h) Multiscreen Harvest plates using a Tomtec Harvester, washed 9 times with 500 μL of cold 50 mM Tris-HCl (pH 7.4), and than plates are air-dried in a fumehood for 30 minutes. A bottom seal is applied to the plates prior to the addition of 25 μL of MicroScint-0 to each well. Plates are than sealed with TopSeal-A and counted for 30 sec per well on a TopCount Microplate Scintillation and Luminescence Counter (PerkinElmer) where results are expressed as counts per minute (cpm).
Data are analyzed by GraphPad™ Prism® (GraphPad Software, San Diego, Calif.) using a variable slope non-linear regression analysis.
[formula] where total and non-specific binding represent the cpm obtained in the absence or presence of 1 μM motilin, respectively.

human motilin receptor, sequence (O43193 whole entry): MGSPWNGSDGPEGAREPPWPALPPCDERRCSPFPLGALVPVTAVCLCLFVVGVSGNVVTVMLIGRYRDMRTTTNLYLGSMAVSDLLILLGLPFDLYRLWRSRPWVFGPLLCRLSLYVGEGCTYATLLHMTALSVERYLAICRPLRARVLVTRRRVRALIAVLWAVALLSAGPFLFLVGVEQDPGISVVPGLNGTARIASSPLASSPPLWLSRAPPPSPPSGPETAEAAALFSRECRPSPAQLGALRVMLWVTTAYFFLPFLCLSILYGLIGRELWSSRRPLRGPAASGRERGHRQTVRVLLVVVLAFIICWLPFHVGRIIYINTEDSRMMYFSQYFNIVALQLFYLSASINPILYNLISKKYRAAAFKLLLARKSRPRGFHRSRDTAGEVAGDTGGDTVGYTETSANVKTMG

SMILES: CC(C)[C@H]1NC(=O)[C@@H](Cc2cccc(Cl)c2)NCCOc2ccccc2CCCNC(=O)[C@H](CCNC(=N)N)NC1=O [Compound 507]
- Ki: ≤ 100 nM

SMILES: CC(C)[C@H]1NC(=O)[C@@H](Cc2cccc(Cl)c2)NCCOc2ccccc2CCCNC(=O)[C@H](CNc2nccs2)NC1=O [Compound 509]
- Ki: ≤ 100 nM

SMILES: CC(C)[C@H]1NC(=O)[C@@H](Cc2cccc(F)c2)NCCOc2ccccc2C[C@@H](C)CNC(=O)[C@H](CN(C)C)NC1=O [Compound 514]
- Ki: ≤ 1000 nM

SMILES: CC(C)[C@H]1NC(=O)[C@@H](Cc2cccc(Cl)c2)NCCOc2ccccc2CCCNC(=O)[C@H](CC(=N)N)NC1=O [Compound 518]
- Ki: ≤ 100 nM

SMILES: CC(C)[C@H]1NC(=O)[C@@H](Cc2cccc(Cl)c2)NCCOc2ccccc2CCCNC(=O)[C@H](CNC2=NCCCN2)NC1=O [Compound 521]
- Ki: ≤ 100 nM

SMILES: CC(C)[C@H]1NC(=O)[C@@H](Cc2cccc(Cl)c2)NCCOc2ccccc2CCCNC(=O)[C@H](CN/C(N)=N/C#N)NC1=O [Compound 522]
- Ki: ≤ 100 nM

SMILES: CC(C)[C@H]1NC(=O)[C@@H](Cc2cccc(C(F)(F)F)c2)NCCOc2ccccc2CCCNC(=O)[C@H](Cn2nncc2CN)NC1=O [Compound 523]
- Ki: ≤ 100 nM

SMILES: CC(C)[C@H]1NC(=O)[C@@H](Cc2cccc(C(F)(F)F)c2)NCCOc2ccccc2CCCNC(=O)[C@H](CNc2ncccn2)NC1=O [Compound 524]
- Ki: ≤ 100 nM

SMILES: CC(C)[C@H]1NC(=O)[C@@H](Cc2cccc(C(F)(F)F)c2)NCCOc2ccccc2CCCNC(=O)[C@H](CN2CCOCC2)NC1=O [Compound 525]
- Ki: ≤ 100 nM

SMILES: Cc1cnnn1C[C@@H]1NC(=O)[C@@H](C(C)C)NC(=O)[C@@H](Cc2cccc(C(F)(F)F)c2)NCCOc2ccccc2CCCNC1=O [Compound 526]
- Ki: ≤ 100 nM

SMILES: Cc1nnnn1C[C@@H]1NC(=O)[C@@H](C(C)C)NC(=O)[C@@H](Cc2cccc(C(F)(F)F)c2)NCCOc2ccccc2CCCNC1=O [Compound 527]
- Ki: ≤ 100 nM

SMILES: Cc1nnn(C[C@@H]2NC(=O)[C@@H](C(C)C)NC(=O)[C@@H](Cc3cccc(C(F)(F)F)c3)NCCOc3ccccc3CCCNC2=O)c1C [Compound 528]
- Ki: ≤ 100 nM

SMILES: CC(C)C[C@@H]1NC(=O)[C@@H](C(C)C)NC(=O)[C@@H](Cc2cccc(F)c2)N[C@@H](C)COc2ccccc2CCCNC1=O [Compound 556]
- Ki: ≤ 10 nM

SMILES: CCC[C@@H]1NC(=O)[C@@H](CC)NC(=O)[C@@H](Cc2cccc(F)c2)N[C@@H](C)COc2ccccc2CCCNC1=O [Compound 558]
- Ki: ≤ 10 nM

SMILES: CC(C)[C@H]1NC(=O)[C@@H](Cc2ccc(F)cc2)N[C@@H](C)COc2ccccc2CCCNC(=O)[C@H](CC2CC2)NC1=O [Compound 559]
- Ki: ≤ 10 nM

SMILES: CCC[C@@H]1NC(=O)[C@@H](C(C)C)NC(=O)[C@@H](Cc2ccc(F)cc2)N[C@@H](C)COc2ccccc2CCCNC1=O [Compound 560]
- Ki: ≤ 10 nM

SMILES: CCC[C@@H]1NC(=O)[C@@H](C(C)C)NC(=O)[C@@H](Cc2ccc(F)c(F)c2)N[C@@H](C)COc2ccccc2CCCNC1=O [Compound 561]
- Ki: ≤ 10 nM

SMILES: CCC[C@@H]1NC(=O)[C@@H](C(C)C)NC(=O)[C@@H](Cc2cccc(OC)c2)N[C@@H](C)COc2ccccc2CCCNC1=O [Compound 562]
- Ki: ≤ 10 nM

SMILES: C[C@@H]1CNC(=O)[C@H](CC2CC2)NC(=O)[C@@H](C2CC2)NC(=O)[C@@H](Cc2cccc(F)c2)NCCOc2ccccc2C1 [Compound 566]
- Ki: ≤ 10 nM

SMILES: CC(C)[C@H]1NC(=O)[C@@H](Cc2ccc(F)cc2)NCCOc2ccccc2C[C@H](C)CNC(=O)[C@H](CC2CC2)NC1=O [Compound 567]
- Ki: ≤ 10 nM

SMILES: CCC[C@@H]1NC(=O)[C@@H](C(C)C)NC(=O)[C@@H](Cc2ccc(C(F)(F)F)cc2)NCCOc2ccccc2CCCNC1=O [Compound 575]
- Ki: ≤ 100 nM

SMILES: CC(C)[C@H]1NC(=O)[C@@H](Cc2ccc(Cl)cc2)NCCOc2ccccc2CCCNC(=O)[C@H](CNS(C)(=O)=O)NC1=O [Compound 576]
- Ki: ≤ 1000 nM

SMILES: CC(C)[C@H]1NC(=O)[C@@H](Cc2ccc(Cl)cc2)NCCOc2ccccc2CCCNC(=O)[C@H](CNC(N)=O)NC1=O [Compound 577]
- Ki: ≤ 1000 nM

SMILES: CC(C)NC[C@@H]1NC(=O)[C@@H](C(C)C)NC(=O)[C@@H](Cc2ccc(O)cc2)NCCOc2ccccc2CCCNC1=O [Compound 579]
- Ki: ≤ 1000 nM

SMILES: CC(C)NC[C@@H]1NC(=O)[C@@H](C(C)C)NC(=O)[C@@H](Cc2ccc(Cl)cc2)NCCOc2ccccc2CCCNC1=O [Compound 581]
- Ki: ≤ 100 nM

SMILES: COc1ccc(C[C@H]2NCCOc3ccccc3CCCNC(=O)[C@H](CCO)NC(=O)[C@@H](C(C)C)NC2=O)cc1 [Compound 583]
- Ki: ≤ 1000 nM

SMILES: CC(C)[C@H]1NC(=O)[C@@H](Cc2cccc(F)c2)NCCOc2ccccc2CCCNC(=O)[C@H](CC2CC2)NC1=O [Compound 584]
- Ki: ≤ 100 nM

SMILES: CC(C)[C@H]1NC(=O)[C@@H](Cc2cccc(F)c2)NCCOc2ccccc2C[C@@H](C)CNC(=O)[C@H](CC2CC2)NC1=O [Compound 587]
- Ki: ≤ 100 nM

SMILES: CC(C)[C@H]1NC(=O)[C@@H](Cc2cccc(F)c2)NCCOc2ccccc2C[C@H](C)CNC(=O)[C@H](CC2CC2)NC1=O [Compound 588]
- Ki: ≤ 10 nM

SMILES: CC[C@H](C)[C@H](NC(=O)[C@@H]1CCCN1C(=O)[C@@H](NC(=O)[C@@H](N)Cc1ccccc1)C(C)C)C(=O)N[C@@H](Cc1ccccc1)C(=O)N[C@H](C(=O)N[C@@H](Cc1ccc(O)cc1)C(=O)NCC(=O)N[C@@H](CCC(=O)O)C(=O)N[C@@H](CC(C)C)C(=O)N[C@@H](CCC(N)=O)C(=O)N[C@@H](CCCNC(=N)N)C(=O)N[C@@H](CCSC)C(=O)N[C@@H](CCC(N)=O)C(=O)N[C@@H](CCC(=O)O)C(=O)N[C@@H](CCCCN)C(=O)N[C@@H](CCC(=O)O)C(=O)N[C@@H](CCCNC(=N)N)C(=O)N[C@@H](CC(N)=O)C(=O)N[C@@H](CCCCN)C(=O)NCC(=O)N[C@@H](CCC(N)=O)C(=O)O)[C@@H](C)O [[^125I]-motilin, [^125I]-Motilin, reference compound]
- Kd (previously determined during membrane characterization): 0.16 nM
